We go through two compounds from ChEMBL document CHEMBL5653631, “A Potent and Selective ULK1 Inhibitor Suppresses Autophagy and Sensitizes Cancer Cells to Nutrient Stress” (iScience, 2018).

Structures are written as SMILES.

For one assay, the species on record is Homo sapiens. In words: Inhibition of human recombinant p70S6K at 40 nM in presence of ATP by radiometric assay relative to control.
Assay [1] concerns the target Protein-tyrosine kinase 6 (Homo sapiens) (UniProt Q13882). Kind of assay: Inhibition of human recombinant BRK at 40 nM related to control ULK1.
In assay [2] the target is Epidermal growth factor receptor (Homo sapiens) (UniProt P00533). In words: Inhibition of human recombinant EGFR at 15 nM in presence of ATP by radiometric assay relative to control.
Assay [3] addresses T1, Serine/threonine-protein kinase haspin (Homo sapiens) (UniProt Q8TF76).
T1 sequence (whole entry): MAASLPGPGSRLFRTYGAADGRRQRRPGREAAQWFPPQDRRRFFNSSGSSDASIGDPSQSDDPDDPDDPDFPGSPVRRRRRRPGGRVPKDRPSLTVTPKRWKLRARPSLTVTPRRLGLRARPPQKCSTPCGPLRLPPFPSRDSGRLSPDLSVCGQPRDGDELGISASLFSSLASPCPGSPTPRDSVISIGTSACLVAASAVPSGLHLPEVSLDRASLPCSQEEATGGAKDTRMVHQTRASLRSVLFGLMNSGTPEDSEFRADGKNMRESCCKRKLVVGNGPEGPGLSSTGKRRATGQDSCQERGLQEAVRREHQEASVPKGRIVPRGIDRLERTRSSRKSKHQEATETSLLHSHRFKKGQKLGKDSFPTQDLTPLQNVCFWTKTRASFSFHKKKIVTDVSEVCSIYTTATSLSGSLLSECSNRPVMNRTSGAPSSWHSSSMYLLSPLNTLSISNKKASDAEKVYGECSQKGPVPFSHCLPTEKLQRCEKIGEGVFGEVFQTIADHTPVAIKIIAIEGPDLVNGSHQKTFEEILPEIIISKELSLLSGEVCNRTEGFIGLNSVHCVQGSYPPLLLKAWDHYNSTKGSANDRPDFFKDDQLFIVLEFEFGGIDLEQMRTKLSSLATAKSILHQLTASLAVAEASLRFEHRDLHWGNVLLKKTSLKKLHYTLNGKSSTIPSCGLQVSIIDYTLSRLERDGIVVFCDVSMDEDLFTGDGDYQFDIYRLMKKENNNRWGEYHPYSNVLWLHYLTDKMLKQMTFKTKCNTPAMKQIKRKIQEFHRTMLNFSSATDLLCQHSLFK
In words: Inhibition of human recombinant Haspin at 15 nM related to control ULK1.

For assay [4], the target named is T2, Interleukin-1 receptor-associated kinase 4 (Homo sapiens) (UniProt Q9NWZ3).
T2 sequence (whole entry): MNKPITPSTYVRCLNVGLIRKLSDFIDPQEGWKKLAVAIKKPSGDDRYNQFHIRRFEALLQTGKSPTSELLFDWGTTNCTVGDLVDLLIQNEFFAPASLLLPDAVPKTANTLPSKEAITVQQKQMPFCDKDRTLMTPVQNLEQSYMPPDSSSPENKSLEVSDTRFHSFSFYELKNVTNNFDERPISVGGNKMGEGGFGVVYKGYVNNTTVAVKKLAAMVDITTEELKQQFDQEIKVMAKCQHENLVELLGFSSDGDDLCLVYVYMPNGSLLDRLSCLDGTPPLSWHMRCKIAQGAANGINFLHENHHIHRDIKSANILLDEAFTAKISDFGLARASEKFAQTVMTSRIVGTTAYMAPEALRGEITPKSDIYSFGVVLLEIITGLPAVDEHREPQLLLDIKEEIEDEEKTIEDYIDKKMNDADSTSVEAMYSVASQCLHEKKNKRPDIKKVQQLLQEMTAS
Kind of assay: Inhibition of human recombinant IRAK4 at 15 nM related to control ULK1.

The target in assay [5] is T3, Tyrosine-protein kinase Mer (Homo sapiens) (UniProt Q12866).
T3 sequence (whole entry): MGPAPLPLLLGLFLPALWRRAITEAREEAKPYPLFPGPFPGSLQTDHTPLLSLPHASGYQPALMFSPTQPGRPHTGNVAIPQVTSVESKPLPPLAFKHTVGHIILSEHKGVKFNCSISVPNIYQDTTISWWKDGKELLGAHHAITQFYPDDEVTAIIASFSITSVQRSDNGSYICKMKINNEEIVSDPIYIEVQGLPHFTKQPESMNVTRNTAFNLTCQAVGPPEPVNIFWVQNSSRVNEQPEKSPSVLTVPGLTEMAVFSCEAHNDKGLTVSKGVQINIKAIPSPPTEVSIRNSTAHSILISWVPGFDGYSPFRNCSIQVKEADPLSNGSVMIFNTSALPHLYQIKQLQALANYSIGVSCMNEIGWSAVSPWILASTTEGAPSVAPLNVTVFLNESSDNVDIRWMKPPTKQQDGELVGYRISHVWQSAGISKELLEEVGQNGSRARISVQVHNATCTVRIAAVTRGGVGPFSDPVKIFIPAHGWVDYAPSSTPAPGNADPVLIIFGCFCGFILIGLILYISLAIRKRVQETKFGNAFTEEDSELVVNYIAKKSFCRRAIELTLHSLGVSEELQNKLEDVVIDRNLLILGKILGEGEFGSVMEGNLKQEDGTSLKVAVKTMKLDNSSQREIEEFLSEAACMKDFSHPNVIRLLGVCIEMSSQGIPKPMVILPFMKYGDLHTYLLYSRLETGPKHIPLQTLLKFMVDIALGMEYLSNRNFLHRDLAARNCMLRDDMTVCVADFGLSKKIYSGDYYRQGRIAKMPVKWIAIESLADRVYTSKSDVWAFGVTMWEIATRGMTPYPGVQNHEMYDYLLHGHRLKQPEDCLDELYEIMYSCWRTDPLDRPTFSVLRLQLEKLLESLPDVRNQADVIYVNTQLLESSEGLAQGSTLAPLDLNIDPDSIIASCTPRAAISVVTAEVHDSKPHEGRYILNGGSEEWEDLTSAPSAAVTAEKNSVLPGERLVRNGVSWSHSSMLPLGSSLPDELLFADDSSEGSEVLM
Kind of assay: Inhibition of human recombinant MER at 15 nM related to control ULK1.

For assay [6], the target named is Serine/threonine-protein kinase SIK1 (Homo sapiens) (UniProt P57059). In words: Inhibition of human recombinant SIK at 15 nM related to control ULK1.
Sequence of Serine/threonine-protein kinase SIK1 (Homo sapiens) (P57059 whole entry): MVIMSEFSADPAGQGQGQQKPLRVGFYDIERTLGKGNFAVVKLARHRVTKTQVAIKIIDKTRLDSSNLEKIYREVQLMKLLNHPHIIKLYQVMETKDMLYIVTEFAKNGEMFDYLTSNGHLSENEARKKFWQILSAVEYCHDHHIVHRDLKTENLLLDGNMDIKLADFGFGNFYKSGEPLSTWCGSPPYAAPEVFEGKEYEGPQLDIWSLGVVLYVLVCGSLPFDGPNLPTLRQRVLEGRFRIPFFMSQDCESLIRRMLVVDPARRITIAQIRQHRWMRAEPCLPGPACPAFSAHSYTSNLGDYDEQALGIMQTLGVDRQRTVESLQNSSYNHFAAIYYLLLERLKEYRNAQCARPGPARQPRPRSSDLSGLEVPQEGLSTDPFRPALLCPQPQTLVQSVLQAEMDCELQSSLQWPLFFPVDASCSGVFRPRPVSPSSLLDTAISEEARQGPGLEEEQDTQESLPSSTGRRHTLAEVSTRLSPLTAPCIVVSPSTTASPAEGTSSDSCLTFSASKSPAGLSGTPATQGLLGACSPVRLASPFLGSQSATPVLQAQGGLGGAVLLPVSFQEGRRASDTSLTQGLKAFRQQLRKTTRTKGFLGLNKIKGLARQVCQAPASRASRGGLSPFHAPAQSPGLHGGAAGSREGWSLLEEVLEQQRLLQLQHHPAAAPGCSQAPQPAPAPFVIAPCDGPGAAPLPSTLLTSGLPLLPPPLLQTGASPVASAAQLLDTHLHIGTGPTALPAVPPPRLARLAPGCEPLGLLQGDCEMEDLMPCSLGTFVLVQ

Sequence of Protein-tyrosine kinase 6 (Homo sapiens) (Q13882 whole entry, looked up): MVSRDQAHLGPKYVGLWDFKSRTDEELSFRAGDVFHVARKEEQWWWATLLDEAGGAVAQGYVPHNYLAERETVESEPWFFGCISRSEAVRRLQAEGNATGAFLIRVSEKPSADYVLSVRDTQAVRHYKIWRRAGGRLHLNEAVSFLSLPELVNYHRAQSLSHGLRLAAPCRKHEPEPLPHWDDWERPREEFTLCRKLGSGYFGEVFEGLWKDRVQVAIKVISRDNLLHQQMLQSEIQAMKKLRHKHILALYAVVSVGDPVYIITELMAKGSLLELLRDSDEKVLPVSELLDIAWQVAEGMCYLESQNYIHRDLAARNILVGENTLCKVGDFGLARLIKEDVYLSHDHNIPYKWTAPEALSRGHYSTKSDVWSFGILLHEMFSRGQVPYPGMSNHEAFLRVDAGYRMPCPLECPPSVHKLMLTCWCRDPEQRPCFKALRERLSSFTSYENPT
Sequence of Epidermal growth factor receptor (Homo sapiens) (P00533 whole entry): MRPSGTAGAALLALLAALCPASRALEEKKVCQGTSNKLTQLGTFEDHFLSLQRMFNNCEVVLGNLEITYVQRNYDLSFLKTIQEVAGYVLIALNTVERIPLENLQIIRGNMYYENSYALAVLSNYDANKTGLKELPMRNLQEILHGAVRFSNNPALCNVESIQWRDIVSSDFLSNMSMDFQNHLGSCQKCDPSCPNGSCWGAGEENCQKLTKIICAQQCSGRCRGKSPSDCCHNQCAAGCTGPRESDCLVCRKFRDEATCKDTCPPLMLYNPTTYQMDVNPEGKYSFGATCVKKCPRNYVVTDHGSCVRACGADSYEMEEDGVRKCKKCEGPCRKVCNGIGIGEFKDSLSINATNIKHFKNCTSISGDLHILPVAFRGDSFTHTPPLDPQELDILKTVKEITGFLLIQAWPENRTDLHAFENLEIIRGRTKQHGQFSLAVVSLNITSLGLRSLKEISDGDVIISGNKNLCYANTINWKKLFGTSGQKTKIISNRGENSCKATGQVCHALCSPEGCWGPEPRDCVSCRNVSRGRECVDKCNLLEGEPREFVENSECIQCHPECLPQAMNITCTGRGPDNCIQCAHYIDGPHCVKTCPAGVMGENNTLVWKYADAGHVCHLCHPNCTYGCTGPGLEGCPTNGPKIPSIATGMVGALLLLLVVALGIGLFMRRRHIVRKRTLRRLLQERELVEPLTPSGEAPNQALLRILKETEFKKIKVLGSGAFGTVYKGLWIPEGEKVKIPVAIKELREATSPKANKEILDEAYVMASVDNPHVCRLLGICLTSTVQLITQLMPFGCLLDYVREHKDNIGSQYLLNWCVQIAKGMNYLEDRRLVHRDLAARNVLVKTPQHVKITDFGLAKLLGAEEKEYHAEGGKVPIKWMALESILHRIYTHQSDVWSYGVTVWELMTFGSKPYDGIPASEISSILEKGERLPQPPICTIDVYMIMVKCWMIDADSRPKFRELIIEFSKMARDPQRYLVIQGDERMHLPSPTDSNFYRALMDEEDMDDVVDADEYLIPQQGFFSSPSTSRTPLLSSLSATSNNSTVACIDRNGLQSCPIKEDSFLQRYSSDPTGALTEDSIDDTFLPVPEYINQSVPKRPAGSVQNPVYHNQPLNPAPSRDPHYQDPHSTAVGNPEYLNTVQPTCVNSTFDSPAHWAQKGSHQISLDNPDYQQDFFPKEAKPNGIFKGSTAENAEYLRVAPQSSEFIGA

`O=C(N[C@@H](C1CC1)C(F)(F)F)c1cc(-c2cnn3cc(-c4ccc(F)cc4)cnc23)cs1`: the inhibition in the assay listed under Homo sapiens stood at 2%. Moreover, the fold change (FC) in assay [1] turned out to be 0.

Regarding `CC(C)[C@H](NC(=O)c1cc(-c2cnn3cc(-c4ccc(OCCN5CCCCC5)cc4)cnc23)cs1)C(F)(F)F`, the inhibition in assay [2] was found to be 3%. In addition, the fold change (FC) in assay [3] is 0; in assay [4], 0; in assay [5] it was 0.39; in assay [6], 0.84.
